Assay results published in ChEMBL document CHEMBL3885881, “DrugMatrix”.

How the values were obtained:
Rattus norvegicus [1] = species: Rattus norvegicus; experiment: DrugMatrix - Regimen: Daily Repeat; format: toxicity, organism-based, Sprague-Dawley; set-up: regimen Daily Repeat, gender Male, age 6-8 weeks; conditions: in vivo, po, 0 mg/kg, route oral GAVAGE, dose level Control, vehicle .5 % CMC; for ABSOLUTE BASOPHIL / ABSOLUTE EOSINOPHIL / ABSOLUTE LYMPHOCYTE / ABSOLUTE MONOCYTE / ABSOLUTE SEGMENTED NEUTROPHIL / BASOPHIL / EOSINOPHIL / ERYTHROCYTE COUNT / HEMATOCRIT / HEMOGLOBIN / LEUKOCYTE COUNT / LYMPHOCYTE / MEAN CORPUSCULAR HEMOGLOBIN / MEAN CORPUSCULAR HEMOGLOBIN CONCENTRATION / MEAN CORPUSCULAR VOLUME / MONOCYTE / NEUTROPHIL / NUCLEATED RED BLOOD CELLS / PLATELET COUNT: tissue Blood; for ALANINE AMINOTRANSFERASE / ALBUMIN / ALKALINE PHOSPHATASE / ASPARTATE AMINOTRANSFERASE / BLOOD UREA NITROGEN / CARBON DIOXIDE / CHLORIDE / CHOLESTEROL / CREATININE / GLUCOSE / LACTATE DEHYDROGENASE / LIPASE / PHOSPHORUS / POTASSIUM / SODIUM / TOTAL BILIRUBIN / TOTAL PROTEIN / URIC ACID: tissue Plasma
Rattus norvegicus [2] = species: Rattus norvegicus; format: toxicity, organism-based, Sprague-Dawley; conditions: in vivo, po, 0 mg/kg, 24 h, vehicle control, route oral GAVAGE, dose level Control, time 1 day, vehicle .5 % CMC
Description: DrugMatrix - Regimen: Single

## ClC(Br)Br [DIBROMOCHLOROMETHANE]
Rattus norvegicus [1]; 72 h, time 3 day
  ABSOLUTE BASOPHIL: 0 CELLS/uL
  ABSOLUTE EOSINOPHIL: 279.83 CELLS/uL
  ABSOLUTE LYMPHOCYTE: 13152.5 CELLS/uL
  ABSOLUTE MONOCYTE: 1013.83 CELLS/uL
  ABSOLUTE SEGMENTED NEUTROPHIL: 2420.5 CELLS/uL
  BASOPHIL: 0%
  EOSINOPHIL: 1.67%
  ERYTHROCYTE COUNT: 5.26 x10E6/uL
  HEMATOCRIT: 32.22%
  HEMOGLOBIN: 12.02 G/DL
  LEUKOCYTE COUNT: 16.87 x10E3/uL
  LYMPHOCYTE: 77.83%
  MEAN CORPUSCULAR HEMOGLOBIN: 22.93 pg
  MEAN CORPUSCULAR HEMOGLOBIN CONCENTRATION: 37.32 G/DL
  MEAN CORPUSCULAR VOLUME: 61.4 fL
  MONOCYTE: 6%
  NEUTROPHIL: 14.5%
  NUCLEATED RED BLOOD CELLS: 0 /100WBC
  PLATELET COUNT: 1122.17 x10E3/uL
  ALANINE AMINOTRANSFERASE: 55.67 u/L
  ALBUMIN: 4.35 G/DL
  ALKALINE PHOSPHATASE: 362.67 u/L
  ASPARTATE AMINOTRANSFERASE: 96 u/L
  BLOOD UREA NITROGEN: 18 mg/dL
  CARBON DIOXIDE: 27.5 mmol/L
  CHLORIDE: 100.17 MEQ/L
  CHOLESTEROL: 74.5 mg/dL
  CREATININE: 0.17 mg/dL
  GLUCOSE: 141.67 mg/dL
  LACTATE DEHYDROGENASE: 682.5 u/L
  LIPASE: 10 u/L
  PHOSPHORUS: 11.5 mg/dL
  POTASSIUM: 6.41 MEQ/L
  SODIUM: 141.2 MEQ/L
  TOTAL BILIRUBIN: 0.18 mg/dL
  TOTAL PROTEIN: 5.88 G/DL
  URIC ACID: 1.4 mg/dL
Rattus norvegicus [1]; 120 h, time 5 day
  ABSOLUTE BASOPHIL: 0 CELLS/uL
  ABSOLUTE EOSINOPHIL: 18.5 CELLS/uL
  ABSOLUTE LYMPHOCYTE: 8146.83 CELLS/uL
  ABSOLUTE MONOCYTE: 204.83 CELLS/uL
  ABSOLUTE SEGMENTED NEUTROPHIL: 1329.83 CELLS/uL
  BASOPHIL: 0%
  EOSINOPHIL: 0.17%
  ERYTHROCYTE COUNT: 5.37 x10E6/uL
  HEMATOCRIT: 33.17%
  HEMOGLOBIN: 12.07 G/DL
  LEUKOCYTE COUNT: 9.7 x10E3/uL
  LYMPHOCYTE: 85.33%
  MEAN CORPUSCULAR HEMOGLOBIN: 22.52 pg
  MEAN CORPUSCULAR HEMOGLOBIN CONCENTRATION: 36.42 G/DL
  MEAN CORPUSCULAR VOLUME: 61.78 fL
  MONOCYTE: 1.83%
  NEUTROPHIL: 12.67%
  NUCLEATED RED BLOOD CELLS: 0 /100WBC
  PLATELET COUNT: 907.5 x10E3/uL
  ALANINE AMINOTRANSFERASE: 58.5 u/L
  ALBUMIN: 4.4 G/DL
  ALKALINE PHOSPHATASE: 377.67 u/L
  ASPARTATE AMINOTRANSFERASE: 140.33 u/L
  BLOOD UREA NITROGEN: 15.33 mg/dL
  CARBON DIOXIDE: 32.17 mmol/L
  CHLORIDE: 100 MEQ/L
  CHOLESTEROL: 71.83 mg/dL
  CREATININE: 0.18 mg/dL
  GLUCOSE: 185 mg/dL
  LACTATE DEHYDROGENASE: 241.5 u/L
  LIPASE: 9.5 u/L
  PHOSPHORUS: 13.02 mg/dL
  POTASSIUM: 6.45 MEQ/L
  SODIUM: 143.45 MEQ/L
  TOTAL BILIRUBIN: 0.22 mg/dL
  TOTAL PROTEIN: 6.1 G/DL
  URIC ACID: 1 mg/dL
Rattus norvegicus [1]; […], time 14 day
  ABSOLUTE BASOPHIL: 0 CELLS/uL
  ABSOLUTE EOSINOPHIL: 117.17 CELLS/uL
  ABSOLUTE LYMPHOCYTE: 13562 CELLS/uL
  ABSOLUTE MONOCYTE: 534.83 CELLS/uL
  ABSOLUTE SEGMENTED NEUTROPHIL: 2486 CELLS/uL
  BASOPHIL: 0%
  EOSINOPHIL: 0.83%
  ERYTHROCYTE COUNT: 6.14 x10E6/uL
  HEMATOCRIT: 36.87%
  HEMOGLOBIN: 13.87 G/DL
  LEUKOCYTE COUNT: 16.7 x10E3/uL
  LYMPHOCYTE: 81%
  MEAN CORPUSCULAR HEMOGLOBIN: 22.63 pg
  MEAN CORPUSCULAR HEMOGLOBIN CONCENTRATION: 37.62 G/DL
  MEAN CORPUSCULAR VOLUME: 60.15 fL
  MONOCYTE: 3.17%
  NEUTROPHIL: 15%
  NUCLEATED RED BLOOD CELLS: 0 /100WBC
  PLATELET COUNT: 974.83 x10E3/uL
  ALANINE AMINOTRANSFERASE: 52.33 u/L
  ALBUMIN: 4.48 G/DL
  ALKALINE PHOSPHATASE: 346.17 u/L
  ASPARTATE AMINOTRANSFERASE: 81 u/L
  BLOOD UREA NITROGEN: 15.67 mg/dL
  CARBON DIOXIDE: 34.33 mmol/L
  CHLORIDE: 100.17 MEQ/L
  CHOLESTEROL: 70.83 mg/dL
  CREATININE: 0.22 mg/dL
  GLUCOSE: 141.17 mg/dL
  LACTATE DEHYDROGENASE: 121.33 u/L
  LIPASE: 8.33 u/L
  PHOSPHORUS: 9.97 mg/dL
  POTASSIUM: 6.4 MEQ/L
  SODIUM: 143.72 MEQ/L
  TOTAL BILIRUBIN: 0.22 mg/dL
  TOTAL PROTEIN: 6.45 G/DL
  URIC ACID: 1.25 mg/dL
Rattus norvegicus [2]; tissue Blood
  ABSOLUTE EOSINOPHIL: 150 CELLS/uL
  ABSOLUTE LYMPHOCYTE: 13279.83 CELLS/uL
  ABSOLUTE MONOCYTE: 654.5 CELLS/uL
  ABSOLUTE SEGMENTED NEUTROPHIL: 1565.67 CELLS/uL
  BASOPHIL: 0%
  EOSINOPHIL: 1%
  ERYTHROCYTE COUNT: 5.36 x10E6/uL
  HEMATOCRIT: 33.37%
  HEMOGLOBIN: 12.52 G/DL
  LEUKOCYTE COUNT: 15.65 x10E3/uL
  LYMPHOCYTE: 84.83%
  MEAN CORPUSCULAR HEMOGLOBIN: 23.4 pg
  MEAN CORPUSCULAR HEMOGLOBIN CONCENTRATION: 37.52 G/DL
  MEAN CORPUSCULAR VOLUME: 62.32 fL
  MONOCYTE: 4.17%
  NEUTROPHIL: 10%
  NUCLEATED RED BLOOD CELLS: 0 /100WBC
  PLATELET COUNT: 1020 x10E3/uL
Rattus norvegicus [2]; tissue Plasma
  ALANINE AMINOTRANSFERASE: 49 u/L
  ALBUMIN: 4.47 G/DL
  ALKALINE PHOSPHATASE: 361.17 u/L
  ASPARTATE AMINOTRANSFERASE: 78.67 u/L
  BLOOD UREA NITROGEN: 13.17 mg/dL
  CARBON DIOXIDE: 29.67 mmol/L
  CHLORIDE: 100.83 MEQ/L
  CHOLESTEROL: 82.17 mg/dL
  CREATININE: 0.15 mg/dL
  GLUCOSE: 150.83 mg/dL
  LACTATE DEHYDROGENASE: 239.17 u/L
  LIPASE: 7.83 u/L
  PHOSPHORUS: 13.82 mg/dL
  POTASSIUM: 6.62 MEQ/L
  SODIUM: 144.25 MEQ/L
  TOTAL BILIRUBIN: 0.15 mg/dL
  TOTAL PROTEIN: 6.2 G/DL
  URIC ACID: 1.57 mg/dL
